Among the test systems are U-251; ACHN; HOP-62; HCT-15; SW-620; CCRF-CEM; A549; K562; KM12; HL-60; HT-29; Malme-3M; MDA-N; Hs-578T; OVCAR-8; M14; HOP-92; HCC 2998; SF-268; SN12C.
Common to all, as to assay: inhibition of tumour cell growth, NCI panel, 48 h

Ten molecules from ChEMBL document CHEMBL1201862, “PubChem BioAssay data set” (2004) can be followed below.

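Dose response: 5 concentrations. Exposure: 48 h. Format: 96-well plates. Endpoint: linear interpolation; highest concentration if not reached. The concentration for 50% growth inhibition is given as GI50.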 Calls of active or inactive are those of the source. No stated cut-off is given here; in the data, active = GI50 up to about 1.1 µM and inactive = higher.

For the molecule `CC(=O)CCNc1ccc(-c2cc(-c3ccc(N(C)C)cc3)nc3ccc4ccccc4c23)cc1`, the GI50 with U-251 is > 84.9 µM (inactive); in the assay with ACHN, 17.8 µM (inactive); with HOP-62, > 100 µM (inactive); in the assay on HCT-15, 49.7 µM; in the assay with SW-620, > 100 µM (inactive); in the assay on CCRF-CEM it was 8.07 µM (inactive). For the same molecule, the GI50 in the assay on A549 was 34.1 µM (inactive); in the assay on K562, 19.6 µM (inactive); in the assay with KM12, 27.5 µM (inactive); in the assay with HL-60, 3.7 µM (inactive); in the assay with HT-29 it was 66.2 µM (inactive); with Malme-3M, > 67.8 µM (inactive). In addition, the GI50 in the assay with MDA-N was > 100 µM (inactive); in the assay on Hs-578T, 39.2 µM (inactive); in the assay with OVCAR-8, > 100 µM (inactive); in the assay with M14, 32.4 µM (inactive); in the assay on HOP-92, 79.3 µM (inactive); with HCC 2998, > 100 µM (inactive). For the same molecule, the GI50 with SF-268 was > 44.5 µM (inactive); with SN12C, 33.5 µM (inactive).
For the molecule `S=C(NCc1ccccc1)N/N=C/c1ccccn1`, the GI50 in the assay with U-251 was 2.97 µM (inactive); with ACHN, 1.27 µM (inactive); in the assay with HOP-62, 3.7 µM (inactive); in the assay with HCT-15, 1.26 µM; in the assay on SW-620, 1.16 µM (inactive); in the assay with CCRF-CEM, < 0.0409 µM (active). The GI50 in the assay on A549 is 4.29 µM (inactive); in the assay on K562 it was 0.0815 µM (active); in the assay with KM12, 4.91 µM (inactive); in the assay with HL-60 it was 0.0302 µM (active); in the assay on HT-29, 0.743 µM (active); in the assay with Malme-3M it was 1.45 µM (inactive). Moreover, the GI50 in the assay on MDA-N is 8.53 µM (inactive); in the assay on Hs-578T, 14.8 µM (inactive); in the assay on OVCAR-8, 1.15 µM (inactive); with M14 it was 0.5 µM (active); in the assay on HOP-92, 2.21 µM (inactive); in the assay on HCC 2998, 6.31 µM (inactive). Moreover, the GI50 in the assay with SF-268 was 1.42 µM (inactive); in the assay on SN12C, 4.31 µM (inactive).
Take `COc1cc(/C=C/C=C2\CCC/C(=C\C=C\c3ccc(O)c(OC)c3)C2=O)ccc1O`: the GI50 with U-251 was 17.7 µM (inactive); in the assay with ACHN, 4.08 µM (inactive); in the assay with HOP-62, 17.3 µM (inactive); in the assay with HCT-15, 13.6 µM; in the assay on SW-620, 6.84 µM (inactive); in the assay with CCRF-CEM, 0.991 µM (active). Besides, the GI50 in the assay on A549 is 4.85 µM (inactive); in the assay on K562 it was 3.06 µM (inactive); with KM12, 24.7 µM (inactive); with HL-60, 7.13 µM (inactive); with HT-29, 6.04 µM (inactive); in the assay on Malme-3M, 10.6 µM (inactive). The GI50 with MDA-N is 3.91 µM (inactive); in the assay with Hs-578T, 19.5 µM (inactive); with OVCAR-8, 12.6 µM (inactive); in the assay with M14, 18.2 µM (inactive); in the assay on HOP-92 it was 12 µM (inactive); with HCC 2998, 13.2 µM (inactive). Besides, the GI50 with SF-268 was 5.53 µM (inactive); with SN12C, 17.3 µM (inactive).
Take `CC(C)=CCC[C@@H](C)C1=C(O)C(=O)C(C)=C(Nc2ccccc2I)C1=O`: the GI50 in the assay on U-251 was 7.01 µM (inactive); in the assay on ACHN, 16.4 µM (inactive); in the assay on HOP-62 it was 7.59 µM (inactive); in the assay on HCT-15 it was 6.56 µM; in the assay with SW-620, 21.9 µM (inactive); in the assay with CCRF-CEM, 3.03 µM (inactive). For the same molecule, the GI50 with A549 is 11.8 µM (inactive); in the assay on K562, 12.5 µM (inactive); in the assay on KM12, 7.55 µM (inactive); in the assay with HL-60 it was 2.19 µM (inactive); in the assay on HT-29 it was 14 µM (inactive); with Malme-3M, 12.2 µM (inactive). Moreover, the GI50 with MDA-N was 21.2 µM (inactive); in the assay on Hs-578T it was 9.12 µM (inactive); with OVCAR-8, 3.08 µM (inactive); in the assay with M14, 17 µM (inactive); in the assay with HOP-92 it was 14.5 µM (inactive); in the assay on HCC 2998 it was 16.6 µM (inactive). Further, the results for the GI50 in the assay with SF-268 and with SN12C were 11.3 µM (inactive) and 16.7 µM (inactive), respectively.
On to `O=C(Cc1cc(=O)oc2cc(O)ccc12)N/N=C/c1ccc(N(CCCl)CCCl)cc1`, for which the GI50 in the assay with U-251 is 17.4 µM (inactive); in the assay on ACHN it was 15.8 µM (inactive); in the assay on HOP-62, 23.7 µM (inactive); with HCT-15, more than 100 µM; in the assay on SW-620 it was 34.1 µM (inactive); in the assay on CCRF-CEM it was 15 µM (inactive). Moreover, the GI50 with A549 was 16.1 µM (inactive); in the assay with K562 it was 23.5 µM (inactive); with KM12 it was 32.4 µM (inactive); with HL-60, 14.5 µM (inactive); in the assay on HT-29, 22.2 µM (inactive); with Malme-3M, 20.5 µM (inactive). In addition, the GI50 with MDA-N was 23.4 µM (inactive); in the assay on Hs-578T it was 26.1 µM (inactive); with OVCAR-8, 15.1 µM (inactive); in the assay on M14, 19.5 µM (inactive); in the assay on HOP-92, 20.8 µM (inactive); with HCC 2998, > 100 µM (inactive). Further, the GI50 with SF-268 is 13.4 µM (inactive); with SN12C, 17.7 µM (inactive).
Regarding `CC1C(c2ccccc2O)c2cc3c(cc2OC1N1CCOCC1)OCO3` (stereo not given), the GI50 in the assay on U-251 is 26.5 µM (inactive); with ACHN, 29.4 µM (inactive); with HOP-62, 18.5 µM (inactive); in the assay with HCT-15 it was 31 µM; with SW-620, 42.3 µM (inactive); with CCRF-CEM, 20.7 µM (inactive). The GI50 with A549 is 25.6 µM (inactive); with K562, 22.1 µM (inactive); with KM12 it was 27.3 µM (inactive); with HL-60, 20 µM (inactive); with HT-29, 26.9 µM (inactive); with Malme-3M it was 16.9 µM (inactive). Further, the GI50 in the assay on MDA-N was 35.2 µM (inactive); with Hs-578T, 19.4 µM (inactive); in the assay on OVCAR-8, 32.1 µM (inactive); in the assay with M14, 35.4 µM (inactive); in the assay on HOP-92 it was 27 µM (inactive); with HCC 2998 it was 25 µM (inactive). Also, the GI50 with SF-268 was 43 µM (inactive); with SN12C, 37.1 µM (inactive).
For the molecule `Cc1ccc2c(c1)C(=O)C(Cc1ccccc1C(=O)O)C2` (stereo not given), the GI50 in the assay with U-251 is > 100 µM (inactive); in the assay on ACHN it was > 100 µM (inactive); in the assay with HOP-62, > 100 µM (inactive); in the assay with HCT-15 it was more than 100 µM; with SW-620, > 100 µM (inactive); in the assay on CCRF-CEM, > 100 µM (inactive). In addition, the GI50 in the assay on A549, with K562, in the assay on KM12, in the assay with HL-60, with HT-29 and in the assay on Malme-3M was > 100 µM (inactive) throughout. The GI50 in the assay on MDA-N, with Hs-578T, with OVCAR-8, with M14, in the assay on HOP-92 and in the assay with HCC 2998 was > 100 µM (inactive) each time. The GI50 in the assay on SF-268 and with SN12C was > 100 µM (inactive) in each case.
Regarding `Cc1nnc(-n2c(O)cc(=O)n(-c3ccccc3)c2=S)nc1/C=C/c1ccc(N(C)C)cc1`, the GI50 in the assay on U-251 was 10.1 µM (inactive); with ACHN it was 9.23 µM (inactive); with HOP-62, 5.86 µM (inactive); in the assay on HCT-15, 4.88 µM; with SW-620, 12.9 µM (inactive); in the assay with CCRF-CEM, 8.2 µM (inactive). Moreover, the GI50 was 8.63 µM (inactive) with A549; 5.81 µM (inactive) in the assay on K562; 7.05 µM (inactive) with KM12; 2.7 µM (inactive) in the assay on HL-60; 5 µM (inactive) in the assay on HT-29; 2.69 µM (inactive) in the assay with Malme-3M. Also, the GI50 was 9.25 µM (inactive) with MDA-N; 4.99 µM (inactive) in the assay with Hs-578T; 9.59 µM (inactive) with OVCAR-8; 13.7 µM (inactive) with M14; 21.5 µM (inactive) with HOP-92; 6.49 µM (inactive) with HCC 2998. The GI50 is 22.4 µM (inactive) with SF-268 and > 43.5 µM (inactive) in the assay on SN12C.
In the case of `CN1C[C@@H]2CCCN2P1Oc1cccc2cccnc12` (stereo not given in full), the GI50 was 35.2 µM (inactive) in the assay with U-251; 49 µM (inactive) with ACHN; 52.1 µM (inactive) with HOP-62; 16.6 µM in the assay on HCT-15; 18.7 µM (inactive) in the assay on SW-620; 2.41 µM (inactive) with CCRF-CEM. Further, the GI50 with A549 was 44.5 µM (inactive); with K562 it was 9.42 µM (inactive); in the assay on KM12 it was 40.2 µM (inactive); in the assay on HL-60, 16.1 µM (inactive); in the assay on HT-29, 33 µM (inactive); in the assay on Malme-3M, 25.8 µM (inactive). For the same molecule, the GI50 is 55.2 µM (inactive) in the assay on MDA-N; 17.5 µM (inactive) with Hs-578T; 42.6 µM (inactive) with OVCAR-8; 33.7 µM (inactive) in the assay on M14; > 100 µM (inactive) with HOP-92; 47.3 µM (inactive) in the assay on HCC 2998. In addition, the GI50 is 16 µM (inactive) in the assay on SF-268 and 22.9 µM (inactive) with SN12C.
For the molecule `CCCC(=O)N[C@H]1CCc2cc(OC)c(OC)c(OC)c2-c2ccc(SC)c(=O)cc21`, the GI50 is < 0.01 µM (active) in the assay on U-251; < 0.01 µM (active) in the assay on ACHN; < 0.01 µM (active) in the assay with HOP-62; 0.0109 µM with HCT-15; < 0.01 µM (active) with SW-620; < 0.0465 µM (active) with CCRF-CEM. In addition, the GI50 in the assay on A549, in the assay with K562, with KM12, with HL-60, with HT-29 and in the assay with Malme-3M was < 0.01 µM (active) each time. Also, the GI50 with MDA-N, in the assay with Hs-578T, with OVCAR-8, in the assay on M14, in the assay with HOP-92 and in the assay on HCC 2998 was < 0.01 µM (active) in each case. The GI50 in the assay with SF-268 and with SN12C was < 0.01 µM (active) in each case.
